Measured values reported in PubChem BioAssay (NCI).
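A five-concentration, 48-hour dose response in 96-well plates underlies each endpoint, interpolated linearly between surrounding concentrations. GI50: concentration for 50% inhibition of growth. TGI denotes the concentration required for complete inhibition of growth.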

Experiments:
Test in all cases: DTP human tumour cell line panel, 48 h
[1] = system: SK-MEL-2 melanoma
[2] = system: MALME-3M melanoma
[3] = system: OVCAR-3 ovarian
[4] = system: HCT-15 colon
[5] = system: 786-0 renal
[6] = system: CCRF-CEM leukemia
[7] = system: EKVX NSCLC
[8] = system: TK-10 renal
[9] = system: COLO 205 colon
[10] = system: HOP-62 NSCLC
[11] = system: SNB-19 CNS
[12] = system: A498 renal
[13] = system: HS 578T breast
[14] = system: SW-620 colon
[15] = system: U251 CNS
[16] = system: SK-MEL-5 melanoma
[17] = system: KM12 colon
[18] = system: IGROV1 ovarian
[19] = system: HT29 colon
[20] = system: K-562 leukemia
[21] = system: RXF 393 renal
[22] = system: PC-3 prostate
[23] = system: HCT-116 colon
[24] = system: DU-145 prostate
[25] = system: NCI-H23 lung
[26] = system: OVCAR-8 ovarian
[27] = system: HOP-92 NSCLC
[28] = system: SK-MEL-28 melanoma
[29] = system: UO-31 renal
[30] = system: SF-295 CNS
[31] = system: UACC-257 melanoma
[32] = system: SF-539 CNS
[33] = system: MCF7 breast
[34] = system: NCI-H460 lung
[35] = system: M14 melanoma
[36] = system: NCI-H522 lung
[37] = system: NCI-H226 lung
[38] = system: LOX IMVI melanoma
[39] = system: T-47D breast
[40] = system: MDA-MB-231 breast
[41] = system: OVCAR-5 ovarian
[42] = system: HL-60(TB) leukemia
[43] = system: SF-268 CNS
[44] = system: UACC-62 melanoma
[45] = system: SK-OV-3 ovarian
[46] = system: MDA-MB-435
[47] = system: ACHN renal
[48] = system: SN12C renal
[49] = system: A549 NSCLC
[50] = system: HCC-2998 colon
[51] = system: SNB-75 CNS
[52] = system: SR leukemia
[53] = system: BT-549 breast
[54] = system: CAKI-1 renal
[55] = system: NCI/ADR-RES ovarian
[56] = system: OVCAR-4 ovarian
[57] = system: MOLT-4 leukemia

COC1CC2CCC(C)[C@](O)(O2)C(=O)C(=O)N2CCCCC2C(=O)OC(C(C)CC2CCC(O)C(OC)C2)CC(=O)C(C)C=C(C)C(OC(=O)CN(C)C)C(OC)C(=O)C(C)CC(C)/C=C/C=C/C=C\1C (stereo partly drawn)
TGI [1]: 15.1 µM
TGI [2]: 20.4 µM
TGI [3]: 22 µM
TGI [4]: 22.6 µM
TGI [5]: 24.7 µM
TGI [6]: 5.42 µM
TGI [7]: 20.3 µM
TGI [8]: 23.8 µM
TGI [9]: 25.2 µM
TGI [10]: 19.3 µM
TGI [11]: 15.9 µM
TGI [12]: 11.9 µM
TGI [13]: 16.9 µM
TGI [14]: 21.9 µM
TGI [15]: 18.2 µM
TGI [16]: 19.8 µM
TGI [17]: 23.1 µM
TGI [18]: 9.88 µM
TGI [19]: 20.2 µM
TGI [20]: 13.6 µM
TGI [21]: 15.5 µM
TGI [22]: 21.2 µM
TGI [23]: 22.2 µM
TGI [24]: 14.5 µM
TGI [25]: 24.3 µM
TGI [26]: 62.5 µM
TGI [27]: 21.6 µM
TGI [28]: 20.7 µM
TGI [29]: 5.27 µM
TGI [30]: 20.7 µM
TGI [31]: 24.1 µM
TGI [32]: 12.7 µM
TGI [33]: 17.6 µM
TGI [34]: 21.7 µM
TGI [35]: 23 µM
TGI [36]: 22.6 µM
TGI [37]: 22.3 µM
TGI [38]: 16.7 µM
TGI [39]: 25 µM
TGI [40]: 20.4 µM
TGI [41]: 26.4 µM
TGI [42]: 6.38 µM
TGI [43]: 14.8 µM
TGI [44]: 20.2 µM
TGI [45]: 20 µM
TGI [46]: 19.2 µM
TGI [47]: 19.6 µM
TGI [48]: 18.7 µM
TGI [49]: 26.9 µM

c1ccc2cc(Cn3c(-c4ccc5ccccc5c4)[n+](Cc4ccc5ccccc5c4)c4ccccc43)ccc2c1
GI50 [2]: 0.215 µM
TGI [2]: 0.649 µM
GI50 [50]: 0.365 µM
TGI [50]: 1.47 µM
GI50 [14]: 0.31 µM
TGI [14]: 1.22 µM
GI50 [17]: 0.269 µM
TGI [17]: 0.869 µM
GI50 [51]: 0.182 µM
TGI [51]: 0.827 µM
GI50 [22]: 0.228 µM
TGI [22]: 0.763 µM
GI50 [23]: 0.193 µM
TGI [23]: 0.598 µM
GI50 [24]: 0.399 µM
TGI [24]: 1.52 µM
GI50 [27]: 0.0852 µM
TGI [27]: 0.416 µM
GI50 [28]: 0.362 µM
TGI [28]: 1.28 µM
GI50 [29]: 0.781 µM
TGI [29]: 2.3 µM
GI50 [32]: 0.381 µM
TGI [32]: 1.52 µM
GI50 [37]: 0.481 µM
TGI [37]: 2.46 µM
GI50 [40]: 0.218 µM
TGI [40]: 0.961 µM
GI50 [41]: 0.41 µM
TGI [41]: 1.59 µM
GI50 [42]: 0.293 µM
TGI [42]: 0.944 µM
GI50 [44]: 0.277 µM
TGI [44]: 0.89 µM
GI50 [46]: 0.296 µM
TGI [46]: 1.03 µM
GI50 [47]: 0.752 µM
TGI [47]: 2.04 µM

Nc1ccc(Oc2ccc(C3(c4ccc(Oc5ccc(N)c(O)c5)cc4)C4CC5C6CC7CC5C3C(C7)C6C4)cc2)cc1O
TGI [1]: 5.64 µM
TGI [2]: > 24.2 µM
TGI [52]: > 100 µM
TGI [4]: 10.3 µM
TGI [5]: 3.4 µM
TGI [53]: > 31.2 µM
TGI [6]: > 100 µM
TGI [7]: > 24.1 µM
TGI [8]: > 26 µM
TGI [54]: 6.72 µM
TGI [11]: 24.2 µM
TGI [12]: 4.73 µM
TGI [50]: 4.96 µM
TGI [13]: > 100 µM
TGI [14]: > 100 µM
TGI [16]: > 26.4 µM
TGI [17]: 3.85 µM
TGI [18]: 4.68 µM
TGI [20]: 5.35 µM
TGI [21]: 4.5 µM
TGI [22]: 3.48 µM
TGI [24]: 3.54 µM
TGI [27]: 5.02 µM
TGI [55]: > 100 µM
TGI [28]: > 26.5 µM
TGI [56]: 5.73 µM
TGI [29]: 8.12 µM
TGI [31]: 14.6 µM
TGI [32]: > 21.6 µM
TGI [57]: 4.99 µM
TGI [34]: > 100 µM
TGI [41]: 5.76 µM
TGI [42]: > 100 µM
TGI [44]: 17.7 µM
TGI [47]: 3.18 µM
TGI [48]: 3.19 µM
